Test results taken from article PMC5377441 (International Journal for Parasitology: Drugs and Drug …, 2017).
Like-named read-outs stand apart in the source and are kept apart here. Marks after values point to notes of the source that are not given here.

Experiments:
[1] = tested on: T. muris; assay: In vitro drug uptake and elimination by T. muris; assay type: in vitro ADME, Trichuris muris; settings: 24 h
[2] = assay type: in vivo, C57BL/10 mice
[3] = tested on: T. muris; assay: Drug uptake by T. muris in vivo; parameters: species or system Trichuris muris in C57BL/10 mice
[4] = tested on: adult H. polygyrus; settings: 100 μM, 72 h; ref Unpublished data; cited from earlier work
[5] = tested on: H. polygyrus; settings: oral 100 mg/kg; ref Unpublished data; cited from earlier work
[6] = tested on: adult T. muris; settings: incubation at >600 μM, 72 h; ref Keiser et al., 2012; cited from earlier work
[7] = tested on: T. muris; settings: oral 150 mg/kg; ref Keiser et al., 2013; cited from earlier work
[8] = tested on: trichuriasis; settings: ref Keiser and Utzinger, 2008; cited from earlier work

COC(=O)Nc1nc2ccc(C(=O)c3ccccc3)cc2[nH]1 [Mebendazole, mebendazole]
MBZ in worms ([1]; incubation at 5 μM): 482 ± 388 nmol/10 worms | MBZ in worms ([1]; incubation at 10 μM): 626 ± 463 nmol/10 worms | MBZ in worms ([1]; incubation at 25 μM): 672 ± 251 nmol/10 worms | MBZ in worms ([1]; incubation at 50 μM): 826 ± 390 nmol/10 worms | MBZ in worms ([1]; incubation at 75 μM): 910 ± 362 nmol/10 worms | MBZ in worms ([1]; incubation at 100 μM): 861 ± 503 nmol/10 worms | concentration at 2 h ([2]; C57BL/10, mouse, plasma, intraperitoneal, 100 mg/kg): 3.6 µM | mebendazole in the mucosa of the large intestine ([2]; intraperitoneal 100 mg/kg, 2 h): 1 µmol/g | mebendazole in the mucosa of the small intestine ([2]; intraperitoneal 100 mg/kg, 2 h): 4 µmol/g | administered drug in the large intestine ([2]; oral 100 mg/kg, 2 h): 18 µmol/g | administered drug in the mucosa of the large intestine ([2]; oral 100 mg/kg, 2 h): 3 µmol/g | administered drug in the mucosa of the small intestine ([2]; oral 100 mg/kg, 2 h): 8 µmol/g | administered drug in the small intestine ([2]; oral 100 mg/kg, 2 h): 222 µmol/g | administered drug in the stomach ([2]; oral 100 mg/kg, 2 h): 215 µmol/g | administered drug in the large intestine ([2]; oral 100 mg/kg, 5 h): 100 µmol/g | administered drug in the mucosa of the large intestine ([2]; oral 100 mg/kg, 5 h): 5 µmol/g | administered drug in the mucosa of the small intestine ([2]; oral 100 mg/kg, 5 h): 6 µmol/g | administered drug in the large intestine ([2]; oral 100 mg/kg, 8 h): 40 µmol/g | administered drug in the mucosa of the large intestine ([2]; oral 100 mg/kg, 8 h): 2 µmol/g | administered drug in the mucosa of the small intestine ([2]; oral 100 mg/kg, third value, time not given): 4 µmol/g | drug quantity in worms, maximum ([3]; in vivo): ≤ 21 nmol per ten T. muris | mebendazole in worms ([3]; intraperitoneal 100 mg/kg, 2 h): 5 nmol/10 worms | mebendazole in worms ([3]; oral 100 mg/kg, unchanged over time, close to LLOQ): 20 nmol/10 worms | Drug effect [4]: 0% [100 μM] ^a | Worm burden reduction [5]: 59% [100 mg/kg] ^a | Drug effect [6]: <50% ^b | Worm burden reduction [7]: 68% [150 mg/kg] ^c | cure rate [8]: below 36%
